From article PMC7749516, “Safety and nonclinical and clinical pharmacokinetics of PC945, a novel inhaled triazole antifungal agent” (Pharmacology Research & Perspectives, 2020)
Values joined by “and” are separate entries in the source; they are usually repeats but may differ in a detail not shown here. Equal values may be shown once. Marks after values point to notes of the source that are not given here.

Assay: Clinical pharmacokinetics, single ascending inhaled dose in healthy subjects (Cohort 1)
Format: in vivo, human
Conditions: for AUC0–24h / C max / AUC0–∞ / t ½: geometric mean (CV%); for t max: median (range), postend of inhalation
Protocol: This PC945 first‐in‐human clinical trial (ClinicalTrials.gov Identifier: NCT02715570) was a two‐part randomized, placebo‐controlled study to assess the safety and tolerability of PC945 in both healthy subjects and subjects with mild asthma, conducted at Parexel Early Phase Clinical Unit (Harrow, UK). The study was considered single‐blind as the appearance of active and placebo doses were different, however, it was conducted in a double‐blind manner (employing separate dosing and assessment teams).
Part one consisted of a single dose escalation study (Cohort 1) and a repeat dose study (Cohort 2) of inhaled PC945 in healthy subjects. Part two comprised a single dose study of inhaled PC945 in subjects with mild asthma (Cohort 3). The doses selected were predicted to achieve target lung concentrations above the IC90/MIC90 for A. fumigatus (based on data from a range of in vitro and in vivo systems) throughout a 24‐hour period and with a suitable safety margin based on animal toxicology data.
In Cohort 1, 11 healthy subjects (three males and eight females; mean age: 48.5 years, mean weight: 65.32 kg, mean body mass index [BMI]: 23.62 kg/m^2), attended the single ascending dose study. Eight healthy subjects started the study in which two subjects were randomized to each of the four ascending dose treatment sequences (Table 1); two subjects withdrew due to adverse events unrelated to study medication and both were replaced. One of the replacement subjects subsequently withdrew from the study for personal reasons and was replaced by another subject (Figure 1). Overall, six subjects each received three of four doses of PC945 (0.5, 2, 5, and 10 mg) and one dose of placebo. These doses were administered with a minimum of 13 days interval to allow for washout.
Serial blood samples were collected to determine plasma PC945 concentrations. For the single dose study in healthy subjects and in subjects with mild asthma, blood samples were collected predose and at 0.25, 0.5, 1, 2, 4, 6, 8, 24, 30, and 48 hours postend of inhalation and at the follow‐up visit. For the repeat dose study, blood samples were collected (a) predose and at 0.25, 0.5, 1, 2, 4, 6, 8, 10, 12, and 24 hours postend of inhalation on Days 1 and 7, and 30 and 48 hours on Day 7; (b) predose on Days 5 and 6; (c) at the follow‐up visit.

Cc1cc(N2CCN(c3ccc(C(=O)Nc4ccc(F)cc4)cc3)CC2)ccc1OC[C@@H]1CO[C@@](Cn2cncn2)(c2ccc(F)cc2F)C1 [PC945]
Increase in C max for a doubling in dose (single doses 0.5 to 10 mg, 90% CI 1.54, 2.02): 1.77 fold
Increase in AUC0–24h for a doubling in dose (single doses 0.5 to 10 mg, 90% CI 1.64, 2.15): 1.88 fold
AUC0–24h (single inhaled 0.5 mg): 726 (73.4) ^a pg•h/mL
C max (single inhaled 0.5 mg): 54.7 (64.8) ^a pg/mL
AUC0–∞ (single inhaled 0.5 mg, n = 2): 1480 (7.41) ^b pg•h/mL
t ½ (single inhaled 0.5 mg, n = 2, considered unreliable): 36.9 (24.1) ^b h
t max (single inhaled 0.5 mg): 1 h and 1.10 (0.250‐2.10) ^a h
AUC0–24h (single inhaled 2 mg): 1990 (102) pg•h/mL
C max (single inhaled 2 mg): 128 (107) pg/mL
AUC0–∞ (single inhaled 2 mg, n = 3): 3140 (175) ^c pg•h/mL
t ½ (single inhaled 2 mg, n = 3, considered unreliable): 27.9 (58.4) ^c h
t max (single inhaled 2 mg): 4 h and 4.11 (2.09‐8.11) h
AUC0–24h (single inhaled 5 mg): 5440 (48.0) pg•h/mL
C max (single inhaled 5 mg): 322 (51.1) pg/mL
t ½ (single inhaled 5 mg, n = 4, considered unreliable): 37.3 (36.4) ^d h
t max (single inhaled 5 mg): 5 h and 5.10 (2.08‐8.12) h
C max (single inhaled 10 mg): 619 (39.1) pg/mL
t ½ (single inhaled 10 mg, considered unreliable): 110 (16.5) h
t max (single inhaled 10 mg): 2 h and 2.13 (0.330‐6.15) h
